Tests used:
[1] = test system: Mus musculus; experiment: Toxicity in Mus musculus Swiss albino (mouse) assessed as mortality at 100 mg/kg, ip; assay type: organism-based; parameters: dose 100 mg/kg, route intraperitoneal; settings: in vivo
[2] = test system: Mus musculus; experiment: Toxicity in Mus musculus Swiss albino (mouse) assessed as vertical locomotor activity at 100 mg/kg, ip; assay type: organism-based; parameters: dose 100 mg/kg, route intraperitoneal; settings: in vivo
[3] = test system: Mus musculus; experiment: Toxicity in Mus musculus Swiss albino (mouse) assessed as horizontal locomotor activity at 100 mg/kg, ip; assay type: organism-based; parameters: dose 100 mg/kg, route intraperitoneal; settings: in vivo
[4] = test system: Mus musculus; experiment: Antinociceptive activity against formalin-induced pain in Mus musculus Swiss albino (mouse) assessed as inhibition of licking during second phase (15 to 30 min) at 100 mg/kg, ip administered 30 min before experimental session; assay type: functional; settings: route intraperitoneal
[5] = test system: Mus musculus; experiment: Antinociceptive activity against formalin-induced pain in Mus musculus Swiss albino (mouse) assessed as inhibition of licking during first phase (0 to 5 min) at 100 mg/kg, ip administered 30 min before experimental session; assay type: functional; settings: route intraperitoneal
[6] = test system: Mus musculus; experiment: Antinociceptive activity in Mus musculus Swiss albino (mouse) assessed as prolongation of reaction latency to mechanical stimuli at 100 mg/kg, ip administered 30 min before experimental session by tail-clip test; assay type: functional; settings: route intraperitoneal
[7] = test system: Mus musculus; experiment: Antinociceptive activity in Mus musculus Swiss albino (mouse) assessed as increase in reaction (paw licking and jumping) latency to thermal stimulus at 100 mg/kg, ip administered 30 min before experimental session by hot plate test; assay type: functional; settings: route intraperitoneal
[8] = test system: Mus musculus; experiment: Antinociceptive activity in Mus musculus Swiss albino (mouse) assessed as increase in reaction (paw licking and jumping) latency to thermal stimulus at 10 mg/kg, ip administered 30 min before experimental session by hot plate test; assay type: functional; settings: route intraperitoneal
[9] = test system: Mus musculus; experiment: Antinociceptive activity in Mus musculus Swiss albino (mouse) assessed as prolongation of reaction latency to mechanical stimuli at 10 mg/kg, ip administered 30 min before experimental session by tail-clip test; assay type: functional; settings: route intraperitoneal
[10] = organism: Mus musculus; experiment: animal or person; settings: Swiss albino, ip, read-out: INH
Description: Antinociceptive activity against formalin-induced pain in Mus musculus Swiss albino (mouse) assessed as inhibition of licking during second phase (15 to 30 min) at 10 mg/kg, ip administered 30 min before experimental session

[11] = organism: Mus musculus; experiment: animal or person; settings: Swiss albino, ip, read-out: INH; remark: listed apart in the source
Description: Antinociceptive activity against formalin-induced pain in Mus musculus Swiss albino (mouse) assessed as inhibition of licking during first phase (0 to 5 min) at 10 mg/kg, ip administered 30 min before experimental session

Nn1c(CCc2ccc(O)cc2)nnc1SCC(=O)N1N=C(c2cccs2)CC1c1ccc2c(c1)OCO2 (stereo unspecified)
Activity [1]: Non-toxic
Activity [2]: Non-toxic
Activity [3]: Non-toxic
inhibition in vivo at 100 mg/kg [4]: 37.3%
inhibition in vivo at 100 mg/kg [5]: 32%
MPE [6]: 36.2%
Activity [7]: 45.1%

Nn1c(CCc2ccc(O)cc2)nnc1SCC(=O)N1N=C(c2cccs2)CC1c1ccc(Cl)cc1 (stereo unspecified)
Activity [1]: Non-toxic
Activity [2]: Non-toxic
Activity [3]: Non-toxic
inhibition in vivo at 100 mg/kg [4]: 72.1%
inhibition in vivo at 100 mg/kg [5]: 68.7%
MPE [6]: 75.3%
Activity [7]: 81.6%

Nn1c(CCc2ccc(O)cc2)nnc1SCC(=O)N1N=C(c2cccs2)CC1c1ccc(F)cc1 (stereo unspecified)
Activity [1]: Non-toxic
Activity [2]: Non-toxic
Activity [3]: Non-toxic
inhibition in vivo at 100 mg/kg [4]: 78.3%
inhibition in vivo at 100 mg/kg [5]: 73.7%
MPE [6]: 85%
Activity [7]: 89%

Cc1ccc(C2CC(c3cccs3)=NN2C(=O)CSc2nnc(CCc3ccc(O)cc3)n2N)cc1 (stereo unspecified)
Activity [1]: Non-toxic
Activity [2]: Non-toxic
Activity [3]: Non-toxic
inhibition in vivo at 100 mg/kg [4]: 42.5%
inhibition in vivo at 100 mg/kg [5]: 35.4%
MPE [6]: 53.5%
Activity [7]: 50.3%

Nn1c(CCc2ccc(O)cc2)nnc1SCC(=O)N1N=C(c2cccs2)CC1c1ccccc1 (stereo unspecified)
Activity [1]: Non-toxic
Activity [2]: Non-toxic
Activity [3]: Non-toxic
inhibition in vivo at 100 mg/kg [4]: 79.2%
inhibition in vivo at 100 mg/kg [5]: 66.6%
MPE [6]: 80.2%
Activity [7]: 79.4%

CN1CC[C@]23c4c5ccc(O)c4O[C@H]2[C@@H](O)C=C[C@H]3[C@H]1C5 [MORPHINE]
Activity [8]: 92.5%
MPE [9]: 88.1%
inhibition in vivo at 10 mg/kg [10]: 100%
inhibition in vivo at 10 mg/kg [11]: 100%

CN(C)c1ccc(C2CC(c3cccs3)=NN2C(=O)CSc2nnc(CCc3ccc(O)cc3)n2N)cc1 (stereo unspecified)
Activity [1]: Non-toxic
Activity [2]: Non-toxic
Activity [3]: Non-toxic
inhibition in vivo at 100 mg/kg [4]: 38.9%
inhibition in vivo at 100 mg/kg [5]: 31.3%
MPE [6]: 36.5%
Activity [7]: 38.5%
